“And” between values parts separate entries of the source, which are not always exact repeats. Identical values can stand only once. Inconclusive results and toxic doses are left out. Rule for the calls: active = survival T/C of 150% or more; inactive = T/C below 125% in these data. Peptide text beside a SMILES is read from it. * marks the point of attachment. Cbz = O=C(OCc1ccccc1)*
System: P388 leukemia ip, CD2F1 mice, survival T/C
Assay: NCI In Vivo Anticancer Drug Screen. Data for tumor model P388 Leukemia (intraperitoneal) in CD2F1 (CDF1) mice
Details: endpoint: median survival time, higher = longer survival
In short: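 Mice carrying the transplanted tumor received test compound or vehicle. Survival was recorded in each group, and the value is the treated-group measurement divided by that of the vehicle-treated control group.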

[1] = dose: 50.0 mg/kg/injection, schedule: Q01DX009 (ip), vehicle: saline
[2] = dose: 200.0 mg/kg/injection, schedule: Q01DX009 (ip), vehicle: saline
[3] = dose: 50.0 mg/kg/injection, schedule: Q01DX009 (ip), vehicle: Klucel (hydroxypropylcellulose) (HPC)
[4] = dose: 100.0 mg/kg/injection, schedule: Q01DX009 (ip), vehicle: Klucel (hydroxypropylcellulose) (HPC)
[5] = dose: 200.0 mg/kg/injection, schedule: Q01DX009 (ip), vehicle: Klucel (hydroxypropylcellulose) (HPC)
[6] = dose: 60.0 mg/kg/injection, schedule: Q01DX005 (ip), vehicle: saline with Tween-80
[7] = dose: 120.0 mg/kg/injection, schedule: Q01DX005 (ip), vehicle: saline with Tween-80
[8] = dose: 240.0 mg/kg/injection, schedule: Q01DX005 (ip), vehicle: saline with Tween-80
[9] = dose: 50.0 mg/kg/injection, schedule: Q01DX005 (ip), vehicle: saline with Tween-80
[10] = dose: 100.0 mg/kg/injection, schedule: Q01DX005 (ip), vehicle: saline with Tween-80
[11] = dose: 200.0 mg/kg/injection, schedule: Q01DX005 (ip), vehicle: saline with Tween-80
[12] = dose: 12.5 mg/kg/injection, schedule: Q01DX005 (ip), vehicle: Klucel (hydroxypropylcellulose) (HPC)
[13] = dose: 25.0 mg/kg/injection, schedule: Q01DX005 (ip), vehicle: Klucel (hydroxypropylcellulose) (HPC)
[14] = dose: 50.0 mg/kg/injection, schedule: Q01DX005 (ip), vehicle: Klucel (hydroxypropylcellulose) (HPC)
[15] = dose: 60.0 mg/kg/injection, schedule: Q01DX005 (ip), vehicle: Klucel (hydroxypropylcellulose) (HPC)
[16] = dose: 120.0 mg/kg/injection, schedule: Q01DX005 (ip), vehicle: Klucel (hydroxypropylcellulose) (HPC)
[17] = dose: 240.0 mg/kg/injection, schedule: Q01DX005 (ip), vehicle: Klucel (hydroxypropylcellulose) (HPC)

Measured: T/C

Nc1cc(S(=O)(=O)O)c(Br)c(Br)c1Br
inactive: [1] 94 % of control | dose: 100.0 mg/kg/injection, schedule: Q01DX009 (ip), vehicle: saline 95 % of control | [2] 90 % of control

CSc1cccc(NC(=O)OCCOc2ccc([N+](=O)[O-])cc2)c1
inactive: [3] 98 % of control | [4] 101 % of control | [5] 99 % of control

c1ccc(C[N+]23CCC(CC2)C3c2ccccc2)cc1 (stereo not drawn)
inactive: dose: 3.75 mg/kg/injection, schedule: Q01DX005 (ip), vehicle: saline 103 % of control | dose: 7.5 mg/kg/injection, schedule: Q01DX005 (ip), vehicle: saline 103 % of control | dose: 15.0 mg/kg/injection, schedule: Q01DX005 (ip), vehicle: saline 104 % of control

COc1cc2c(cc1OC)C1C(C)c3ccc(OC)c(OC)c3CN1CC2 (stereo not drawn)
inactive: dose: 12.5 mg/kg/injection, schedule: Q01DX009 (ip), vehicle: saline 88 % of control | dose: 25.0 mg/kg/injection, schedule: Q01DX009 (ip), vehicle: saline 104 % of control | [1] 107 % of control | dose: 50.0 mg/kg/injection, schedule: Q04DX003 (ip), vehicle: distilled water + Tween-80 93 % of control | dose: 100.0 mg/kg/injection, schedule: Q04DX003 (ip), vehicle: distilled water + Tween-80 87 % of control | dose: 200.0 mg/kg/injection, schedule: Q04DX003 (ip), vehicle: distilled water + Tween-80 87 % of control | dose: 400.0 mg/kg/injection, schedule: Q01DX009 (ip), vehicle: saline 94 % of control | dose: 400.0 mg/kg/injection, schedule: Q04DX003 (ip), vehicle: distilled water + Tween-80 91 % of control

COc1ccccc1NC(=O)C1=CNC(C)=C(C(=O)Nc2ccccc2OC)C1/C=C/c1ccccc1 (stereo not drawn)
inactive: [6] 100 % of control | [7] 105 % of control | [8] 105 % of control

CC(=O)CC(=NC(C)(C)C)Nc1ncc(Cl)c2ccccc12
inactive: [9] 94 % of control | [10] 92 % of control | [11] 97 % of control

O=C1CSC(c2ccccc2F)N1c1ncccn1 (stereo not drawn)
inactive: [12] 105 % of control | [13] 108 % of control | [14] 108 % of control (2×) and 119 % of control | dose: 100.0 mg/kg/injection, schedule: Q01DX005 (ip), vehicle: Klucel (hydroxypropylcellulose) (HPC) 104 % of control and 109 % of control and 119 % of control | dose: 200.0 mg/kg/injection, schedule: Q01DX005 (ip), vehicle: Klucel (hydroxypropylcellulose) (HPC) 100 % of control and 109 % of control

CCN1CCN(CCCl)C1=O
active: [2] 160 % of control

CCn1cnc(-c2ccccc2)c1-c1ccccc1
inactive: dose: 25.0 mg/kg/injection, schedule: Q04DX003 (ip), vehicle: saline with Tween-80 109 % of control | dose: 50.0 mg/kg/injection, schedule: Q04DX003 (ip), vehicle: saline with Tween-80 100 % of control

O=C1CCCN1C1CC2c3ccccc3C1c1cccc[n+]12 (stereo not drawn)
inactive: dose: 5.0 mg/kg/injection, schedule: Q01DX009 (ip), vehicle: saline sonified 100 % of control | dose: 10.0 mg/kg/injection, schedule: Q01DX009 (ip), vehicle: saline sonified 100 % of control | dose: 20.0 mg/kg/injection, schedule: Q01DX009 (ip), vehicle: saline sonified 95 % of control

O=[N+]([O-])c1cc(C(Nc2nncs2)Nc2nncs2)ccc1Cl
inactive: dose: 30.0 mg/kg/injection, schedule: Q01DX005 (ip), vehicle: saline with Tween-80 91 % of control | [6] 109 % of control and 87 % of control
active: [8] 150 % of control

CC(=S)N(c1ccccc1)c1ccccc1
inactive: [15] 101 % of control | [16] 96 % of control | [17] 93 % of control

CC(C)(C)n1nc(C2CC2)c(Br)c1NC(=O)c1ccc(Cl)cc1
inactive: dose: 30.0 mg/kg/injection, schedule: Q01DX005 (ip), vehicle: Klucel (hydroxypropylcellulose) (HPC) 109 % of control | [15] 96 % of control | [16] 101 % of control | [17] 98 % of control

Cc1cc(N(C)C)cc(C)c1N=Nc1cc[n+]([O-])cc1
inactive: dose: 25.0 mg/kg/injection, schedule: Q01DX009 (ip), vehicle: saline with Tween-80 95 % of control | dose: 50.0 mg/kg/injection, schedule: Q01DX009 (ip), vehicle: saline with Tween-80 94 % of control | dose: 100.0 mg/kg/injection, schedule: Q01DX009 (ip), vehicle: saline with Tween-80 103 % of control | dose: 200.0 mg/kg/injection, schedule: Q01DX009 (ip), vehicle: saline with Tween-80 95 % of control

CCN(CC)CCSCCCN=c1c2ccc(Cl)cc2n(O)c2ccc(OC)nc12
inactive: dose: 50.0 mg/kg/injection, schedule: Q01DX009 (ip), vehicle: saline + alcohol 115 % of control | dose: 100.0 mg/kg/injection, schedule: Q01DX009 (ip), vehicle: saline + alcohol 112 % of control

CC1=CC2OC3CC4OC(=O)/C=C/C=C/C(C(C)O)OCC(O)/C(C)=C/C(=O)OCC2(CC1O)C4(C)C31CO1 (stereo not drawn)
active: dose: 1.25 mg/kg/injection, schedule: Q01DX005 (ip), vehicle: saline + alcohol 163 % of control | dose: 2.5 mg/kg/injection, schedule: Q01DX005 (ip), vehicle: saline + alcohol 156 % of control and 224 % of control | dose: 5.0 mg/kg/injection, schedule: Q01DX005 (ip), vehicle: saline + alcohol 198 % of control and 243 % of control

C[C@H]1COC(c2ccccn2)=N1
inactive: dose: 60.0 mg/kg/injection, schedule: Q01DX005 (ip), vehicle: saline 105 % of control | dose: 120.0 mg/kg/injection, schedule: Q01DX005 (ip), vehicle: saline 106 % of control | dose: 240.0 mg/kg/injection, schedule: Q01DX005 (ip), vehicle: saline 96 % of control

O=C(NC(c1ccccc1)c1ccccc1)OCc1c2ccccc2cc2ccccc12
inactive: [3] 88 % of control | [4] 100 % of control | [5] 100 % of control

N#Cc1ccoc1
inactive: [12] 93 % of control | [13] 102 % of control | [14] 104 % of control

C/C(O)=C(/N=Nc1ccccc1)C(=O)O
inactive: [6] 110 % of control | [7] 98 % of control

Cn1cnc([N+](=O)[O-])c1S(=O)(=O)NCN1CCOCC1
inactive: dose: 6.25 mg/kg/injection, schedule: Q01DX009 (ip), vehicle: Klucel (hydroxypropylcellulose) (HPC) 116 % of control | dose: 12.5 mg/kg/injection, schedule: Q01DX009 (ip), vehicle: Klucel (hydroxypropylcellulose) (HPC) 119 % of control

CC(C)CC(NC(=O)C(NC(=O)OCc1ccccc1)C(C)C)C(=O)O (stereo not drawn) (Cbz-Val-Leu-OH; configuration not given here)
inactive: [9] 92 % of control | [10] 106 % of control | [11] 111 % of control

O=C(/C=C/c1ccccc1)/C=C/c1ccccc1 (tested in a mixture with another compound)
inactive: [6] 98 % of control | [7] 91 % of control | [8] 91 % of control

c1ccc(NN=Nc2ncnc3nc[nH]c23)cc1
inactive: dose: 12.5 mg/kg/injection, schedule: Q01DX005 (ip), vehicle: saline with Tween-80 106 % of control | dose: 25.0 mg/kg/injection, schedule: Q01DX005 (ip), vehicle: saline with Tween-80 111 % of control | [9] 102 % of control and 115 % of control

C/C(=N\N(C)C)C1=C(O)C(C(C)C)NC1=O (stereo not drawn)
inactive: [6] 100 % of control | [7] 105 % of control | [8] 98 % of control

CC1=C(C(=O)N2Cc3cc4ccccc4nc3C2)COC1=O
inactive: dose: 50.0 mg/kg/injection, schedule: Q01DX001 (ip), vehicle: saline with Tween-80 99 % of control | dose: 100.0 mg/kg/injection, schedule: Q01DX001 (ip), vehicle: saline with Tween-80 90 % of control | dose: 200.0 mg/kg/injection, schedule: Q01DX001 (ip), vehicle: saline with Tween-80 95 % of control | dose: 400.0 mg/kg/injection, schedule: Q01DX001 (ip), vehicle: saline with Tween-80 90 % of control

O=C1OC(c2ccccc2)=N/C1=C/c1c(Cl)n(-c2ccccc2)c2ccccc12
inactive: dose: 100.0 mg/kg/injection, schedule: Q01DX001 (ip), vehicle: Klucel (hydroxypropylcellulose) (HPC) 96 % of control | dose: 200.0 mg/kg/injection, schedule: Q01DX001 (ip), vehicle: Klucel (hydroxypropylcellulose) (HPC) 94 % of control | dose: 400.0 mg/kg/injection, schedule: Q01DX001 (ip), vehicle: Klucel (hydroxypropylcellulose) (HPC) 93 % of control

C(=C\c1ccc(-c2nc3ccccc3o2)cc1)/c1ccc(-c2nc3ccccc3o2)cc1
inactive: [3] 100 % of control | [4] 101 % of control | [5] 102 % of control

Reference: PubChem BioAssay AID330 (DTP/NCI, 2004)
